Legend:
E. faecalis = experiment: Biological activity against bacterial strains: E. faecalis; format: cell-based, Enterococcus faecalis; conditions: strain ATCC51575
S. aureus = experiment: Biological activity against bacterial strains: S. aureus; format: cell-based, Staphylococcus aureus; parameters: unit not given here; conditions: for Biological Activity, S. aureus ATCC6538p: strain ATCC6538p; for Biological Activity, S. aureus ATCC14154*: strain ATCC14154, macrolide resistant strain; for Biological Activity, S. aureus ATCC29213: strain ATCC29213; for Biological Activity, S. aureus ATCC33591*: strain ATCC33591, macrolide resistant strain; for Biological Activity, S. aureus ATCCBAA-39*: strain ATCCBAA-39, macrolide resistant strain; for Biological Activity, S. aureus ATCCBAA-44*: strain ATCCBAA-44, macrolide resistant strain
S. epidermidis = experiment: Biological activity against bacterial strains: S. epidermidis; format: cell-based, Staphylococcus epidermidis; conditions: strain ATCC12228
S. pneumoniae = experiment: Biological activity against bacterial strains: S. pneumoniae; format: cell-based, Streptococcus pneumoniae; parameters: Biological Activity, S. pneumoniae ATCC6301 / Biological Activity, S. pneumoniae ATCC700671 / Biological Activity, S. pneumoniae ATCC700676* / Biological Activity, S. pneumoniae ATCC700677* / Biological Activity, S. pneumoniae ATCC700905* / Biological Activity, S. pneumoniae ATCC700906* / Biological Activity, S. pneumoniae ATCC49619: unit not given here; conditions: for Biological Activity, S. pneumoniae ATCC6301: strain ATCC6301; for Biological Activity, S. pneumoniae ATCC49619: strain ATCC49619; for Biological Activity, S. pneumoniae ATCC700671: strain ATCC700671; for Biological Activity, S. pneumoniae ATCC700676*: strain ATCC700676, macrolide resistant strain; for Biological Activity, S. pneumoniae ATCC700677*: strain ATCC700677, macrolide resistant strain; for Biological Activity, S. pneumoniae ATCC700905*: strain ATCC700905, macrolide resistant strain; for Biological Activity, S. pneumoniae ATCC700906*: strain ATCC700906, macrolide resistant strain

SMILES | Biological Activity, E. faecalis ATCC51575 (E. faecalis) | Biological Activity, S. aureus ATCC6538p (S. aureus) | Biological Activity, S. aureus ATCC14154* (S. aureus) | Biological Activity, S. aureus ATCC29213 (S. aureus) | Biological Activity, S. aureus ATCC33591* (S. aureus) | Biological Activity, S. aureus ATCCBAA-39* (S. aureus) | Biological Activity, S. aureus ATCCBAA-44* (S. aureus) | Biological Activity, S. epidermidis ATCC12228 (S. epidermidis) | Biological Activity, S. pneumoniae ATCC6301 (S. pneumoniae) | Biological Activity, S. pneumoniae ATCC49619 (S. pneumoniae) | Biological Activity, S. pneumoniae ATCC700671 (S. pneumoniae) | Biological Activity, S. pneumoniae ATCC700676* (S. pneumoniae) | Biological Activity, S. pneumoniae ATCC700677* (S. pneumoniae) | Biological Activity, S. pneumoniae ATCC700905* (S. pneumoniae) | Biological Activity, S. pneumoniae ATCC700906* (S. pneumoniae)
CCC1OC(=O)CC(O)C(C)C(OC2OC(C)C(O)C(N(C)C)C2O)C(CC=O)CC(C)C(=NOCC=Cc2cnc3ccccc3c2)C=CC(C)=CC1CO (single isomer, unassigned) [Compound G] | >12.5 | 0.20 | 0.78 | 0.78 | >12.5 | >12.5 | >12.5 | 0.39 | 0.025 | 0.025 | 0.025 | 0.049 | >12.5 | 0.049 | >12.5
CCC1OC(=O)CC(O)C(C)C(OC2OC(C)C(O)C(N(C)C)C2O)C(CCN2CC(C)CC(C)C2)CC(C)C(=NOCCCOc2ccc3ncccc3c2)C=CC(C)=CC1COC1OC(C)C(O)C(OC)C1OC (single isomer, unassigned) [Compound K] | >12.5 | 0.20 | 0.39 | 0.39 | >12.5 | >12.5 | >12.5 | 0.39 | 0.01 | 0.098 | 0.025 | 0.049 | 0.049 | 0.20 | >12.5
CCC1OC(=O)CC(O)C(C)C(OC2OC(C)C(O)C(N(C)C)C2O)C(CCN2CC(C)CC(C)C2)CC(C)C(=NOCCCOc2ccc3ncccc3c2)C=CC(C)=CC1COC1OC(C)C(O)C(OC)C1OC (single isomer, unassigned) [Compound L] | >12.5 | 0.20 | 0.20 | 0.20 | >12.5 | >12.5 | >12.5 | 0.20 | 0.01 | 0.025 | 0.01 | 0.049 | 0.025 | 0.098 | >12.5
CCC1OC(=O)CC(O)C(C)C(OC2OC(C)C(O)C(N(C)C)C2O)C(CCN2CC(C)CC(C)C2)CC(C)C(=NOCCCCOc2ccc3ncccc3c2)C=CC(C)=CC1COC1OC(C)C(O)C(OC)C1OC (single isomer, unassigned) [Compound M] | >12.5 | 0.78 | 1.56 | 1.56 | >12.5 | >12.5 | >12.5 | 1.56 | 0.01 | 0.01 | 0.01 | 1.56 | 6.25 | 1.56 | >12.5
CCC1OC(=O)CC(O)C(C)C(OC2OC(C)C(O)C(N(C)C)C2O)C(CCN2CC(C)CC(C)C2)CC(C)C(=NOCCCCOc2ccc3ncccc3c2)C=CC(C)=CC1COC1OC(C)C(O)C(OC)C1OC (single isomer, unassigned) [Compound N] | >12.5 | 0.78 | 1.56 | 3.12 | >12.5 | >12.5 | >12.5 | 3.12 | 0.025 | 0.098 | 0.049 | 1.56 | 6.25 | 0.78 | >12.5
CCC1OC(=O)CC(O)C(C)C(OC2OC(C)C(O)C(N(C)C)C2O)C(CCN2CC(C)CC(C)C2)CC(C)C(=NOCc2ccc(F)cc2)C=CC(C)=CC1COC1OC(C)C(O)C(OC)C1OC (single isomer, unassigned) [Compound P] | >12.5 | 0.39 | 6.25 | 0.78 | >12.5 | >12.5 | >12.5 | 0.78 | 0.39 | 0.78 | 0.78 | 3.12 | 6.25 | 3.12 | 12.5
CCC1OC(=O)CC(O)C(C)C(OC2OC(C)C(O)C(N(C)C)C2O)C(CCN2CC(C)CC(C)C2)CC(C)C(=NOCc2ccc(F)cc2)C=CC(C)=CC1COC1OC(C)C(O)C(OC)C1OC (single isomer, unassigned) [Compound Q] | >12.5 | 0.20 | 0.78 | 0.78 | 12.5 | >12.5 | >12.5 | 0.78 | 0.20 | 0.39 | 0.39 | 0.78 | 6.25 | 0.78 | 12.5
CCC1OC(=O)CC(O)C(C)C(OC2OC(C)C(O)C(N(C)C)C2O)C(CCN2CC(C)CC(C)C2)CC(C)C(=NOCCCCOc2ccc3ncccc3c2)C=CC(C)=CC1CO (single isomer, unassigned) [Compound T] | >12.5 | 6.25 | >12.5 | 12.5 | >12.5 | >12.5 | >12.5 | >12.5 | 1.56 | 6.25 | 3.12 | 6.25 | >12.5 | 6.25 | >12.5
CCC1OC(=O)CC(O)C(C)C(OC2OC(C)C(O)C(N(C)C)C2O)C(CCN2CC(C)CC(C)C2)CC(C)C(=NOCCCCOc2ccc3ncccc3c2)C=CC(C)=CC1CO (single isomer, unassigned) [Compound U] | >12.5 | >12.5 | >12.5 | >12.5 | >12.5 | >12.5 | >12.5 | >12.5 | 6.25 | 12.5 | 12.5 | >12.5 | >12.5 | 12.5 | >12.5
CCC1OC(=O)CC(O)C(C)C(OC2OC(C)C(O)C(N(C)C)C2O)C(CC=O)CC(C)C(=NOCCCCOc2ccc3ncccc3c2)C=CC(C)=CC1CO (stereo not drawn) [Compound B] | >12.5 | 0.20 | 0.78 | 0.78 | >12.5 | >12.5 | >12.5 | 0.20 | 0.025 | 0.01 | 0.025 | 0.025 | 0.39 | 0.025 | >12.5

From patent US7247617B2, “Sixteen-member macrolide antiinfective agents” (Kosan Biosciences Incorporated, priority 2004, dated 2007)
